According to EP4717267A1, “SYNERGISTIC COMBINATION FOR TREATING CANCER” (FUNDACION UNIVERSITARIA SAN ANTONIO (UCAM), priority 2023, dated 2024):

Legend:
[1] = system: MCF-7 cells; experiment: MTT colorimetric cytotoxicity assay on MCF-7 cells, single drugs and two-drug combinations, with combination index (CompuSyn); format: cell-based, Human; conditions: for IC50: Homo sapiens, MCF7, read-out: IC50 concentration, which inhibits MCF-7 cell proliferation by 50% compared to control cells, single drug, MCF-7, 72 hours, MTT; for effect of the analog in combination with Doxorubicin on the anticancer activity of Doxorubicin: MCF-7, combination with Doxorubicin; for type of drug interaction with Doxorubicin (combination index): MCF-7
Method: (§1) IC50 values were calculated using GraphPad Prism software.
(§2) This equation defines "Synergism" (CI < 1), "Additive effect" (CI = 1) and "Antagonism" (CI > 1).

[2] = system: A549 cells; experiment: MTT colorimetric cytotoxicity assay on A549 cells, single drugs and two-drug combinations, with combination index (CompuSyn); format: cell-based; conditions: Homo sapiens, A549, 72 hours, read-out: IC50 value for cancer cell survival
Method: The cancer cell lines (MCF-7, A549 and U-87MG) were cultured as monolayers in Dulbecco's modified Eagle's medium supplemented with 10% (v/v) fetal bovine serum and 1% (v/v) penicillin/streptomycin mixture (10,000 U/mL penicillin and 10 mg/mL streptomycin) in a 100% humidified atmosphere of 5% CO2 and 95% air at 37 °C. […] Cell cultures were kept in the exponential growth phase by regularly passaging cells three times a week with 0.25% trypsin/EDTA mixture.
The cytotoxic activity of the test compounds against cancer cell lines was tested using the standard MTT (3-(4,5-dimethylthiazol-2-yl)-2,5-diphenyltetrazolium bromide) colorimetric assay. […] Briefly, exponentially proliferating cells were seeded into each well of a 96-well microplate (about 5×10^3 cells/well). After 24 hours, test compounds at various concentrations were added to the respective wells, and the cells were incubated for another 72 hours. After incubating the cells with the test compounds, the medium was removed and MTT solution with a final concentration of 0.5 mg/mL was added. After 4 hours of incubation, the MTT solution was replaced with DMSO to dissolve the resulting violet formazan crystals in metabolically viable cells. Plates were gently shaken at room temperature until the formazan was completely dissolved and read at 540 nm using a microplate reader. […] The experiment was repeated at least three times under the same conditions. […] IC50 values were calculated using GraphPad Prism software. […] The test drugs were administered to the cells at the same time.
The combination index (CI) method - a dimensionless quantity used to determine and quantify the type of drug interaction - for binary combinations was calculated using CompuSyn software based on the equation: (CI)x = ((D)1)/((Dx)1) + ((D)2)/((Dx)2) = ((D)1)/((Dm)1 ([(fa)/((1−fa))])^((1)/(m1))) + ((D)2)/((Dm)2 ([(fa)/((1−fa))])^((1)/(m2))) [formula] […]
All data are expressed as mean±standard deviation (SD) and presented as a percentage of control (untreated cells) taken as 100%, n=3 (or more). […]

[3] = system: U-87MG cells; experiment: MTT colorimetric cytotoxicity assay on U-87MG cells, single drugs and two-drug combinations, with combination index (CompuSyn); format: cell-based, Human; conditions: for IC50: Homo sapiens, single drug, U-87MG, 72 hours, MTT, read-out: IC50 value (cell survival)
Method: Glimepiride and its analogs were first prepared as a stock solution in DMSO, and then the drugs were dissolved fresh in culture medium enriched with Tween 80 (final concentration 0.05%).
Human cancer cells (MCF-7, A549 and U-87MG) and normal endothelial cells (HMEC-1) were obtained from American Type Cell Culture (Rockville, MD). The cancer cell lines (MCF-7, A549 and U-87MG) were cultured as monolayers in Dulbecco's modified Eagle's medium supplemented with 10% (v/v) fetal bovine serum and 1% (v/v) penicillin/streptomycin mixture (10,000 U/mL penicillin and 10 mg/mL streptomycin) in a 100% humidified atmosphere of 5% CO2 and 95% air at 37 °C. Normal endothelial cells (HMEC-1) were cultured in MCDB 131 medium supplemented with 10% (v/v) fetal bovine serum, 10 ng/mL EGF, 1 µg/mL hydrocortisone and 1% (v/v) penicillin/streptomycin solution, in a humidified atmosphere of 5% CO2 and 95% air at 37 °C. Cell cultures were kept in the exponential growth phase by regularly passaging cells three times a week with 0.25% trypsin/EDTA mixture.
as §1, §2
All data are expressed as mean±standard deviation (SD) and presented as a percentage of control (untreated cells) taken as 100%, n=3 (or more). Sample size was estimated for Type I and Type II statistical errors of […], respectively. Normality of the data was checked with the Shapiro-Wilk test, and the homogeneity of variance was checked with the Levene or Brown-Forsythe test. The significance of differences between pairs of means was estimated using one-way ANOVA and Tukey's post-hoc test. For each analysis, the post-hoc power of the used tests was checked. Statistical power below 80% was considered a null result, and constructive conclusions were not made. All statistics were calculated using […] (StatSoft, USA) or GraphPad Prism software.

[4] = system: MDA-MB-231 breast carcinoma cells; conditions: Glibenclamide alone; inhibits G1-S phase progression without cell death or differentiation; cited from earlier work
[5] = Glimepiride analog 100-500 µM in combination with Doxorubicin 0.225, 0.450, 0.900 µM

For `CCCCCOC(=O)Nc1nc(=O)n([C@@H]2O[C@H](C)[C@@H](O)[C@H]2O)cc1F` [CAPE, pentyl N-[1-[(2R,3R,4S,5R)-3,4-dihydroxy-5-methyloxolan-2-yl]-5-fluoro-2-oxopyrimidin-4-yl]carbamate], the IC50 [1] was 180 nM, the IC50 [2] was 60 nM and the IC50 [3] was 40 nM.

With `CCCCNC(=O)NS(=O)(=O)c1ccc(N)cc1` [Carbutamide] the “effect of the analog in combination with Doxorubicin on the anticancer activity of Doxorubicin” value (“effect of the analog in combination” for short) [1] was “beneficial effect”.

In the case of `CCCNC(=O)NS(=O)(=O)c1ccc(Cl)cc1` [Chlorpropamide, 1-(4-chlorophenyl)sulfonyl-3-propylurea], the “type of drug interaction with Doxorubicin (combination index)” value (from here on “type … (combination index)”) [1, 5] is reported as “strong or very strong synergy” and the “effect of the analog in combination” value [1] is reported as “beneficial effect”.

With `CC(=O)O[C@@]12CO[C@@H]1C[C@H](O)[C@@]1(C)C(=O)[C@H](O)C3=C(C)[C@@H](OC(=O)[C@H](O)[C@@H](NC(=O)OC(C)(C)C)c4ccccc4)C[C@@](O)([C@@H](OC(=O)c4ccccc4)[C@H]21)C3(C)C` [DOCE, [(1S,2S,3R,4S,7R,9S,10S,12R,15S)-4-acetyloxy-1,9,12 trihydroxy-15-[(2R,3S)-2-hydroxy-3-[(2-methylpropan-2-yl)oxycarbonylamino]-3 phenylpropanoyl]oxy-10,14,17,17-tetramethyl-11-oxo-6 oxatetracyclo[11.3.1.03,1 0.04, 7]heptadec-13-en-2-yl] benzoate] the IC50 [1] was 240 nM, the IC50 [2] was 150 nM and the IC50 [3] was 80 nM.

With `COc1cccc2c1C(=O)c1c(O)c3c(c(O)c1C2=O)C[C@@](O)(C(=O)CO)C[C@@H]3O[C@H]1C[C@H](N)[C@H](O)[C@H](C)O1` [Doxorubicin, (7S,9S)-7-[(2R,4S,5S,6S)-4-amino-5-hydroxy-6 methyloxan-2-yl]oxy-6,9,11-trihydroxy-9-(2-hydroxyacetyl)-4-methoxy-8,10-dihydro-7H tetracene-5,12-dione] the U-87MG cell survival ([3]; 0.52 µM Doxorubicin alone) was 75.6%.

For `COc1ccc(Cl)cc1C(=O)NCCc1ccc(S(=O)(=O)NC(=O)NC2CCCCC2)cc1` [Glibenclamide], the “type … (combination index)” value [1, 5] is given as “strong or very strong synergy”, the “effect of the analog in combination” value [1] is given as “beneficial effect” and the “effect in MDA-MB-231 cells” value [4] is given as “cytostatic effect”.

For `Cc1ccc(S(=O)(=O)NC(=O)NN2CC3CCCC3C2)cc1` (centres unmarked) [Gliclazide, 1-(3,3a,4,5,6,6a-hexahydro-1H-cyclopenta[c]pyrrol-2-yl)-3-(4-methylphenyl)sulfonylurea], the “type … (combination index)” value [1, 5] was “strong or very strong synergy” and the “effect of the analog in combination” value [1] was “beneficial effect”.

For `CCC1=C(C)CN(C(=O)NCCc2ccc(S(=O)(=O)NC(=O)NC3CCC(C)CC3)cc2)C1=O` (centres unmarked) [Glimepiride, 4-ethyl-3-methyl-N-[2-[4-[(4-methylcyclohexyl)carbamoylsulfamoyl]phenyl]ethyl]-5-oxo-2H-pyrrole-1-carboxamide], the IC50 [1] was 186000 ± 7020 nM, the IC50 [2] was 389000 ± 4490 nM and the IC50 [3] was 149000 ± 12200 nM.

In the case of `Cc1cnc(C(=O)NCCc2ccc(S(=O)(=O)NC(=O)NC3CCCCC3)cc2)cn1` [Glipizide, N-[2-[4-(cyclohexylcarbamoylsulfamoyl)phenyl]ethyl]-5-methylpyrazine-2-carboxamide], the “effect of the analog in combination” value [1] is reported as “beneficial effect”.

For `COc1ccc2c(c1)C(=O)N(CCc1ccc(S(=O)(=O)NC(=O)NC3CCCCC3)cc1)C(=O)C2(C)C` [Gliquidone], the “type … (combination index)” value ([1]; 100 µM analog in combination with Doxorubicin 0.225, 0.450, 0.900 µM) was “additive effect or slight antagonism”, the “type … (combination index)” value [1, 5] was “not every combination of concentrations of Doxorubicin and Gliquidone produce a synergistic effect” and the “effect of the analog in combination” value [1] was “beneficial effect”. For the same compound, the “type … (combination index)” value ([1]; other dose combinations (analog above 100 µM) with Doxorubicin) was “synergistic effects”.

In the case of `Cc1ccc(S(=O)(=O)NC(=O)NN2CCCCCC2)cc1` [Tolazamide, 1-(azepan-1-yl)-3-(4-methylphenyl)sulfonylurea], the “type … (combination index)” value [1, 5] is reported as “strong or very strong synergy” and the “effect of the analog in combination” value [1] is reported as “beneficial effect”.

With `CCCCNC(=O)NS(=O)(=O)c1ccc(C)cc1` [Tolbutamide, 1-butyl-3-(4-methylphenyl)sulfonylurea] the “effect of the analog in combination” value [1] was “beneficial effect”.
